Reference: ChEMBL document CHEMBL3885881, “DrugMatrix”

Species on record: Rattus norvegicus
Experiment: DrugMatrix - Regimen: Daily Repeat
Assay type: toxicity, organism-based, Sprague-Dawley
Set-up: regimen Daily Repeat, gender Male, age 6-8 weeks
Details: in vivo, po, route oral GAVAGE, vehicle 100 % WATER; for ABSOLUTE BASOPHIL / ABSOLUTE EOSINOPHIL / ABSOLUTE LYMPHOCYTE / ABSOLUTE MONOCYTE / ABSOLUTE SEGMENTED NEUTROPHIL / BASOPHIL / EOSINOPHIL / ERYTHROCYTE COUNT / HEMATOCRIT / HEMOGLOBIN / LEUKOCYTE COUNT / LYMPHOCYTE / MEAN CORPUSCULAR HEMOGLOBIN / MEAN CORPUSCULAR HEMOGLOBIN CONCENTRATION / MEAN CORPUSCULAR VOLUME / MONOCYTE / NEUTROPHIL / NUCLEATED RED BLOOD CELLS / PLATELET COUNT: tissue Blood; for ALANINE AMINOTRANSFERASE / ALBUMIN / ALKALINE PHOSPHATASE / ASPARTATE AMINOTRANSFERASE / BLOOD UREA NITROGEN / CARBON DIOXIDE / CHLORIDE / CHOLESTEROL / CREATINE PHOSPHOKINASE / CREATININE / GLUCOSE / LACTATE DEHYDROGENASE / LIPASE / PHOSPHORUS / POTASSIUM / SODIUM / TOTAL BILIRUBIN / TOTAL PROTEIN / URIC ACID: tissue Plasma
[1] = 0 mg/kg, 72 h, dose level Control, time 3 day
[2] = 0 mg/kg, 120 h, dose level Control, time 5 day
[3] = 1 mg/kg, 72 h, dose level Low, time 3 day

Compound: CC[C@H](C)[C@H]1O[C@]2(C=C[C@@H]1C)C[C@@H]1C[C@@H](C/C=C(\C)[C@@H](O[C@H]3C[C@H](OC)[C@@H](O[C@H]4C[C@H](OC)[C@@H](O)[C@H](C)O4)[C@H](C)O3)[C@@H](C)/C=C/C=C3\CO[C@@H]4[C@H](O)C(C)=C[C@@H](C(=O)O1)[C@]34O)O2.CO[C@H]1C[C@H](O[C@H]2[C@H](C)O[C@@H](O[C@@H]3/C(C)=C/C[C@@H]4C[C@@H](C[C@]5(C=C[C@H](C)[C@@H](C(C)C)O5)O4)OC(=O)[C@@H]4C=C(C)[C@@H](O)[C@H]5OC/C(=C\C=C\[C@@H]3C)[C@]54O)C[C@@H]2OC)O[C@@H](C)[C@@H]1O [ABAMECTIN]
- ABSOLUTE BASOPHIL [1]: 0 CELLS/uL
- ABSOLUTE EOSINOPHIL [1]: 40 CELLS/uL
- ABSOLUTE LYMPHOCYTE [1]: 13599.5 CELLS/uL
- ABSOLUTE MONOCYTE [1]: 239.33 CELLS/uL
- ABSOLUTE SEGMENTED NEUTROPHIL [1]: 1021.17 CELLS/uL
- BASOPHIL [1]: 0%
- EOSINOPHIL [1]: 0.33%
- ERYTHROCYTE COUNT [1]: 5.71 x10E6/uL
- HEMATOCRIT [1]: 36.35%
- HEMOGLOBIN [1]: 14.05 G/DL
- LEUKOCYTE COUNT [1]: 14.9 x10E3/uL
- LYMPHOCYTE [1]: 91%
- MEAN CORPUSCULAR HEMOGLOBIN [1]: 24.62 pg
- MEAN CORPUSCULAR HEMOGLOBIN CONCENTRATION [1]: 38.65 G/DL
- MEAN CORPUSCULAR VOLUME [1]: 63.7 fL
- MONOCYTE [1]: 1.5%
- NEUTROPHIL [1]: 7.17%
- NUCLEATED RED BLOOD CELLS [1]: 0.33 /100WBC
- PLATELET COUNT [1]: 1225.5 x10E3/uL
- ALANINE AMINOTRANSFERASE [1]: 48.5 u/L
- ALBUMIN [1]: 4.18 G/DL
- ALKALINE PHOSPHATASE [1]: 390.83 u/L
- ASPARTATE AMINOTRANSFERASE [1]: 89 u/L
- BLOOD UREA NITROGEN [1]: 14.83 mg/dL
- CARBON DIOXIDE [1]: 24.83 mmol/L
- CHLORIDE [1]: 100.83 MEQ/L
- CHOLESTEROL [1]: 72.5 mg/dL
- CREATINE PHOSPHOKINASE [1]: 503 u/L
- CREATININE [1]: 0.2 mg/dL
- GLUCOSE [1]: 163 mg/dL
- LACTATE DEHYDROGENASE [1]: 316.83 u/L
- LIPASE [1]: 9.83 u/L
- PHOSPHORUS [1]: 11.57 mg/dL
- POTASSIUM [1]: 6.16 MEQ/L
- SODIUM [1]: 142.62 MEQ/L
- TOTAL BILIRUBIN [1]: 0.2 mg/dL
- TOTAL PROTEIN [1]: 5.8 G/DL
- URIC ACID [1]: 1.65 mg/dL
- ABSOLUTE BASOPHIL [2]: 0 CELLS/uL
- ABSOLUTE EOSINOPHIL [2]: 21 CELLS/uL
- ABSOLUTE LYMPHOCYTE [2]: 14288.5 CELLS/uL
- ABSOLUTE MONOCYTE [2]: 205.33 CELLS/uL
- ABSOLUTE SEGMENTED NEUTROPHIL [2]: 968.5 CELLS/uL
- BASOPHIL [2]: 0%
- EOSINOPHIL [2]: 0.17%
- ERYTHROCYTE COUNT [2]: 5.83 x10E6/uL
- HEMATOCRIT [2]: 36.53%
- HEMOGLOBIN [2]: 14.4 G/DL
- LEUKOCYTE COUNT [2]: 15.48 x10E3/uL
- LYMPHOCYTE [2]: 92%
- MEAN CORPUSCULAR HEMOGLOBIN [2]: 24.72 pg
- MEAN CORPUSCULAR HEMOGLOBIN CONCENTRATION [2]: 39.43 G/DL
- MEAN CORPUSCULAR VOLUME [2]: 62.68 fL
- MONOCYTE [2]: 1.33%
- NEUTROPHIL [2]: 6.5%
- NUCLEATED RED BLOOD CELLS [2]: 0.17 /100WBC
- PLATELET COUNT [2]: 1280.5 x10E3/uL
- ALANINE AMINOTRANSFERASE [2]: 50 u/L
- ALBUMIN [2]: 4.28 G/DL
- ALKALINE PHOSPHATASE [2]: 380.17 u/L
- ASPARTATE AMINOTRANSFERASE [2]: 82.67 u/L
- BLOOD UREA NITROGEN [2]: 15.33 mg/dL
- CARBON DIOXIDE [2]: 27.17 mmol/L
- CHLORIDE [2]: 100.33 MEQ/L
- CHOLESTEROL [2]: 60.67 mg/dL
- CREATINE PHOSPHOKINASE [2]: 441.5 u/L
- CREATININE [2]: 0.16 mg/dL
- GLUCOSE [2]: 146 mg/dL
- LACTATE DEHYDROGENASE [2]: 189.33 u/L
- LIPASE [2]: 9.17 u/L
- PHOSPHORUS [2]: 11.67 mg/dL
- POTASSIUM [2]: 6.86 MEQ/L
- SODIUM [2]: 142.33 MEQ/L
- TOTAL BILIRUBIN [2]: 0.2 mg/dL
- TOTAL PROTEIN [2]: 6.12 G/DL
- URIC ACID [2]: 1.82 mg/dL
- ABSOLUTE BASOPHIL [3]: 0 CELLS/uL
- ABSOLUTE EOSINOPHIL [3]: 0 CELLS/uL
- ABSOLUTE LYMPHOCYTE [3]: 13707 CELLS/uL
- ABSOLUTE MONOCYTE [3]: 388 CELLS/uL
- ABSOLUTE SEGMENTED NEUTROPHIL [3]: 1005 CELLS/uL
- BASOPHIL [3]: 0%
- EOSINOPHIL [3]: 0%
- ERYTHROCYTE COUNT [3]: 5.4 x10E6/uL
- HEMATOCRIT [3]: 34.53%
- HEMOGLOBIN [3]: 13.23 G/DL
- LEUKOCYTE COUNT [3]: 15.1 x10E3/uL
- LYMPHOCYTE [3]: 91%
- MEAN CORPUSCULAR HEMOGLOBIN [3]: 24.47 pg
- MEAN CORPUSCULAR HEMOGLOBIN CONCENTRATION [3]: 38.3 G/DL
- MEAN CORPUSCULAR VOLUME [3]: 63.93 fL
- MONOCYTE [3]: 2.67%
- NEUTROPHIL [3]: 6.33%
- NUCLEATED RED BLOOD CELLS [3]: 0 /100WBC
- PLATELET COUNT [3]: 1310 x10E3/uL
- ALANINE AMINOTRANSFERASE [3]: 54 u/L
- ALBUMIN [3]: 4.17 G/DL
- ALKALINE PHOSPHATASE [3]: 413 u/L
- ASPARTATE AMINOTRANSFERASE [3]: 81.33 u/L
- BLOOD UREA NITROGEN [3]: 14.33 mg/dL
- CARBON DIOXIDE [3]: 26.67 mmol/L
- CHLORIDE [3]: 100.33 MEQ/L
- CHOLESTEROL [3]: 79.67 mg/dL
- CREATINE PHOSPHOKINASE [3]: 332.67 u/L
- CREATININE [3]: 0.19 mg/dL
- GLUCOSE [3]: 158 mg/dL
- LACTATE DEHYDROGENASE [3]: 294.67 u/L
- LIPASE [3]: 9 u/L
- PHOSPHORUS [3]: 11.97 mg/dL
- POTASSIUM [3]: 6.52 MEQ/L
- SODIUM [3]: 142.57 MEQ/L
- TOTAL BILIRUBIN [3]: 0.23 mg/dL
- TOTAL PROTEIN [3]: 5.73 G/DL
- URIC ACID [3]: 1.57 mg/dL
